Laboratory results reported in PubChem BioAssay (NCI).
Values joined by “and” are separate entries in the source; they are usually repeats but may differ in a detail not shown here. Equal values may be shown once.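 These data come from cells grown in 96-well plates and exposed to compound for 48 hours at five concentrations. The concentration for 50% growth inhibition is given as GI50. TGI is the concentration that stops growth completely.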

Legend:
Test in all cases: NCI tumour cell line growth inhibition, 48 h
DLD-1 colon = test system: DLD-1 colon
DMS 114 small cell lung = test system: DMS 114 small cell lung
LXFL 529 NSCLC = test system: LXFL 529 NSCLC
M19-MEL melanoma = test system: M19-MEL melanoma
SNB-78 CNS = test system: SNB-78 CNS
XF 498 CNS = test system: XF 498 CNS
HOP-18 NSCLC = test system: HOP-18 NSCLC
RXF-631 renal = test system: RXF-631 renal
MDA-N = test system: MDA-N
P388 leukemia = test system: P388 leukemia
P388/ADR leukemia = test system: P388/ADR leukemia
SN12K1 renal = test system: SN12K1 renal

Structure (SMILES)	TGI (DLD-1 colon) [µM]	TGI (DMS 114 small cell lung) [µM]	TGI (LXFL 529 NSCLC) [µM]	TGI (M19-MEL melanoma) [µM]	TGI (SNB-78 CNS) [µM]	TGI (XF 498 CNS) [µM]	TGI (HOP-18 NSCLC) [µM]	TGI (RXF-631 renal) [µM]	TGI (MDA-N)	other results
CCOC(=O)CC(=O)ON(C)C(C)=O	> 100	> 100	> 100	> 100	> 100	> 100	–	–	–	–
c1ccc(COc2cccc3ccc[n+](Cc4ccccc4)c23)cc1	> 100	14.6	20.3	16.3	–	31.4	15.4	> 100	–	–
CCCCCCCCC/C=C1\CCC(CN2CCOCC2)C1=O (configuration not stated)	3.9	7.42	2.95	10.4	15.3	–	10.7	18.2	12.7 µM	–
N=Nc1c(OC(=O)Nc2cccc(Cl)c2)[nH]c2ccccc12	–	–	–	–	–	–	–	–	10.1 µM	–
CCN1c2ccccc2C(C(SC)S(=O)(=O)c2ccc(C)cc2)c2c1[nH]c(=O)n(C)c2=O (configuration not stated)	> 100	> 100	> 100	> 100	> 100	> 100	> 100	–	–	–
CC(C)OP(=O)(OC(C)C)C(=NCCN=C(NNc1ccc([N+](=O)[O-])cc1)P(=O)(OC(C)C)OC(C)C)NNc1ccc([N+](=O)[O-])cc1	> 100	> 100	> 100	> 100	–	9.04	–	–	–	–
COc1cc(C2c3cc4c(cc3OC(C)(O)C2C)OCO4)cc(OC)c1OC (configuration not stated)	–	–	–	–	–	–	–	–	0.258 µM	–
C[Si](C)(C)C1(Sc2ccccc2)SCCCS1	> 100	> 100	> 100	> 100	> 100	> 100	–	–	–	–
CSc1nc(NC2OCC(OC(C)=O)C(OC(C)=O)C2OC(C)=O)c(N=CC=Nc2c(NC3OCC(OC(C)=O)C(OC(C)=O)C3OC(C)=O)nc(SC)[nH]c2=O)c(=O)[nH]1 (configuration not stated)	> 100	> 100	> 100	> 100	> 100	–	> 100	> 100	> 100 µM	–
COC(OC)C(C)CC(=O)N(C)C (configuration not stated)	> 100	> 100	> 100	> 100	> 100	> 100	–	–	–	–
CN(C)c1nc(=Nc2ccc(N=c3nc(N(C)C)ss3)cc2)ss1	30.2	38.1	> 52.1	40.1	38.5	–	> 100	38.8	–	–
CC(C)(C)OC(=O)N[C@H]1CC2(C=C(Cl)C(=O)C(Cl)=C2)OC1=O	13.4	–	23.8	30.9	40	34.5	30.4	30.5	35.5 µM	–
[Cl-].[La+3].[O-]/N=C(\c1ccccc1)c1ccccn1.[O-]/N=C(\c1ccccc1)c1ccccn1.[O-]/N=C(\c1ccccc1)c1ccccn1	> 100	> 100	> 100	50	> 100	–	> 100	–	–	GI50 (DLD-1 colon): 43.5 µM; GI50 (DMS 114 small cell lung): 30.8 µM; GI50 (HOP-18 NSCLC): 31.3 µM; GI50 (LXFL 529 NSCLC): 60.3 µM; GI50 (M19-MEL melanoma): 22 µM; GI50 (SNB-78 CNS): > 90.8 µM
COc1ccc(S(=O)(=O)NNS(C)(=O)=O)cc1	> 100	> 100	> 100	> 100	–	> 100	–	> 100	–	–
CCCCCCN(CCCCCC)C(=O)Cc1c2n(c3ccccc13)Cc1ccccc1-2	> 100	82	> 100	> 100	> 100	–	> 100	–	–	–
COC1=CC(=O)C(C2CC(=O)c3c(O)cc(O)cc3O2)=CC1=O (configuration not stated)	–	–	–	–	–	–	–	–	29.7 µM	–
CC1(C)C2CCC(=O)C1CC2 (configuration not stated)	–	–	–	–	–	–	–	–	> 100 µM	–
COc1c(Cl)c(=O)oc2ccc(Cl)cc12	–	–	–	–	–	–	–	–	> 100 µM	–
OCc1ccc(-c2ccc(-c3ccc(CO)s3)o2)s1	> 73.4	> 100	0.0435	> 100	–	0.356	32.6	–	39.6 µM	–
O=C(/C=C\c1ccc(Cl)c(Cl)c1)c1ccc(Cl)cc1Cl	26.8	–	21.2	81.1	–	–	–	> 100	–	GI50 (DLD-1 colon): 12.6 µM
OC(c1nc2ccccc2[nH]1)C(O)C(O)C(O)c1nc2ccccc2[nH]1 (configuration not stated)	–	–	–	–	–	–	–	–	> 100 µM	–
COc1cc(NCc2ccc3oc(=O)c(-c4ccccc4)nc3c2)cc(OC)c1OC	–	–	–	–	–	–	–	–	> 10 µM	–
NS(=O)(=O)c1cc(Br)c(N=Nc2ccc(O)c3ncccc23)c(Br)c1	–	–	–	–	–	–	–	–	> 100 µM	–

Structure (SMILES)	TGI (DLD-1 colon) [µM]	TGI (DMS 114 small cell lung) [µM]	TGI (LXFL 529 NSCLC) [µM]	TGI (M19-MEL melanoma) [µM]	TGI (SNB-78 CNS) [µM]	TGI (XF 498 CNS) [µM]	TGI (HOP-18 NSCLC) [µM]	TGI (RXF-631 renal) [µM]	TGI (MDA-N)	other results
NC1(C(=O)OCc2ccccc2)CCCC1	–	–	–	–	–	–	–	–	49.6 µM	–
COc1cc(OC)cc(-c2cc(=O)c3c(OC)c(OC)c(OC)c(OC)c3o2)c1	–	–	–	–	–	–	–	–	> 100 µM	–
CCc1cc(Cc2cc(CC)c(NC(=O)C(=O)Cc3ccccn3)c(CC)c2Cl)c(Cl)c(CC)c1NC(=O)C(=O)Cc1ccccn1	> 100	> 100	> 100	> 100	> 100	> 100	> 100	–	–	–
CC(=O)/C(=C\c1cccc([N+](=O)[O-])c1)C(=O)Nc1ccccc1C	> 100	> 100	> 100	> 100	> 100	> 100	> 100	–	–	–
Cc1ccc(S(=O)(=O)Nc2ccccc2C(=O)c2ccc(C)c(C)c2)cc1	–	–	–	–	–	–	–	–	> 100 µM	–
Cc1cc(O)c(/C=N/C(=S)NCc2ccccc2)c(=O)o1	–	–	–	–	–	–	–	–	> 100 µM	–
CCOC(=O)C(=C=C=C(c1ccccc1)c1ccccc1)C(=O)OCC	40.7	40.1	31.4	37.7	37	30.3	–	77	–	–
O=S1(=O)OCCOS(=O)(=O)C1Br	> 100	> 100	> 100	> 100	> 100	–	–	> 100	–	–
C/C(=N\NC(=S)NC(CCC(=O)O)C(=O)O)c1ccccn1 (configuration not stated)	> 100	> 100	> 100	> 100	> 100	> 100	> 100	> 100	–	–
Cc1ccccc1S(=O)(=O)OC1NS(=O)(=O)c2ccccc21 (configuration not stated)	–	–	–	–	–	–	–	–	> 100 µM	–
CC(C)=Cc1cc(C(=O)Nc2ccc(Cl)c(Cl)c2)nc(N)n1	> 100	> 100	> 100	> 100	> 100	> 100	> 100	> 100	–	–
CCOC(=O)NC(=O)c1cn(CCCO)c(=O)[nH]c1=O	> 100	> 100	–	> 100	> 100	> 100	> 100	> 100	–	–
Nc1ncnc2c1nnn2C1OC(CO)C(O)C1O (configuration not stated)	25.5	17.1	–	39.2	> 100	47.3	11.8	–	–	TGI (P388 leukemia): 16.1 µM; TGI (P388/ADR leukemia): 26.7 µM; TGI (SN12K1 renal): 9.58 µM
N#CC(C#N)=CNC(N)=S	–	–	–	–	–	–	–	–	> 100 µM	–
Brc1ccccc1C1SCc2nc3ccccc3n21 (configuration not stated)	26.7	94.4	77.9	34.8	83.7	–	–	–	–	–
O=c1cc(-c2ccccc2)oc2cc(OCCCOc3ccc4c(=O)cc(-c5ccccc5)oc4c3)ccc12	> 100	> 100	> 100	> 100	> 100	> 100	> 100	–	–	–
CC(=O)OC1COC(n2ccc3cc(Br)c([N+](=O)[O-])cc32)C(OC(C)=O)C1OC(C)=O (configuration not stated)	> 100	94.1	> 100	> 100	84.6	30.5	–	58.8	–	–
Cn1c2ccccc2c2cc(-c3ccccc3)c3c(c21)C(=O)c1ccccc1C3=O	31	33.6	29.3	6.47	54.3	39.7	–	> 100	–	–
CC(=O)OC1=CC(n2cc(F)c(=O)[nH]c2=O)OC(C)C1=O (configuration not stated)	> 100	> 100	> 100	> 100	> 100	> 100	> 100	–	> 100 µM	–
CN(C)c1ccc(/C=C(\NC(=O)c2ccccc2)c2nc3ncncc3[nH]2)cc1	> 100	> 100	> 100	> 100	> 100	> 100	–	> 100	–	–
CN(C)CCSC1=Nc2ccc(Cl)cc2C(c2ccccc2Cl)=NC1	–	–	–	–	–	–	–	–	25.8 µM and 89.1 µM	GI50 (MDA-N): 11.8 µM and 25.1 µM
Clc1ccc(C(c2ccc(Cl)cc2)c2ccccn2)cc1	83.5	> 100	35.3	> 100	> 100	34.8	46.6	–	–	–
